Data published in US6087119A, “Method for determining the catalytic activity of factor IXa” (Roche Diagnostics GmbH, priority 1996, dated 2000).

Biological target: rFIXa (human) (Homo sapiens, UniProt P00740)
Assay: Influence of the pH on the activity of rFIXa in the presence of ethylene glycol
Assay type: biochemical
Design: coding for the FIX protease domain from amino acid position 181 to 415; Met (ATG start codon) (N); made in house
Conditions: 25% ethylene glycol; for increase of cleavage rates: pH 7.0-10.0; for cleavage rate mA/min: rFIXa (human)
From the text: 0.28 μmol/l rFIXa (human)

rFIXa (human), sequence (P00740 227-461): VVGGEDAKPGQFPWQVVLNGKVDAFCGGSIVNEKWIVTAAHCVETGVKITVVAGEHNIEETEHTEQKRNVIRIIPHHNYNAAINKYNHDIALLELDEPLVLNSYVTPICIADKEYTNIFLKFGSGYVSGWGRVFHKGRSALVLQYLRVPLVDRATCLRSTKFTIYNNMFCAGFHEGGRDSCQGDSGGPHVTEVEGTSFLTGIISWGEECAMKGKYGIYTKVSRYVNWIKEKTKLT
rFIXa (human), sequence (P00740 131-226): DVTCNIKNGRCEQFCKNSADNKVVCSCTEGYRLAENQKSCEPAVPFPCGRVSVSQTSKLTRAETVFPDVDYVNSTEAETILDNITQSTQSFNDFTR

SMILES: OCCO [Ethylene glycol]
- increase of cleavage rates (substrate MOC-D-Nle-Gly-Arg-pNA): 14 fold
- increase of cleavage rates (substrate MeSO2-D-CHG-Gly-Arg-pNA): 20 fold
- increase of cleavage rates (substrate MeSO2-D-HHT-Gly-Arg-pNA): 10 fold
- cleavage rate mA/min (pH 7.0, MOC-D-Nle-Gly-Arg-pNA): 31.5 mA/min
- cleavage rate mA/min (pH 7.0, MeSO2-D-CHG-Gly-Arg-pNA): 154.7 mA/min
- cleavage rate mA/min (pH 7.0, MeSO2-D-HHT-Gly-Arg-pNA): 56.5 mA/min
- cleavage rate mA/min (pH 7.5, MOC-D-Nle-Gly-Arg-pNA): 70.1 mA/min
- cleavage rate mA/min (pH 7.5, MeSO2-D-CHG-Gly-Arg-pNA): 289.8 mA/min
- cleavage rate mA/min (pH 7.5, MeSO2-D-HHT-Gly-Arg-pNA): 124.5 mA/min
- cleavage rate mA/min (pH 8.0, MOC-D-Nle-Gly-Arg-pNA): 99.7 mA/min
- cleavage rate mA/min (pH 8.0, MeSO2-D-CHG-Gly-Arg-pNA): 372.4 mA/min
- cleavage rate mA/min (pH 8.0, MeSO2-D-HHT-Gly-Arg-pNA): 173.6 mA/min
- cleavage rate mA/min (pH 8.25, MOC-D-Nle-Gly-Arg-pNA): 102.7 mA/min
- cleavage rate mA/min (pH 8.25, MeSO2-D-CHG-Gly-Arg-pNA): 382.2 mA/min
- cleavage rate mA/min (pH 8.25, MeSO2-D-HHT-Gly-Arg-pNA): 176.0 mA/min
- cleavage rate mA/min (pH 8.5, MOC-D-Nle-Gly-Arg-pNA): 104.3 mA/min
- cleavage rate mA/min (pH 8.5, MeSO2-D-CHG-Gly-Arg-pNA): 389.8 mA/min
- cleavage rate mA/min (pH 8.5, MeSO2-D-HHT-Gly-Arg-pNA): 182.1 mA/min
- cleavage rate mA/min (pH 8.75, MOC-D-Nle-Gly-Arg-pNA): 101.6 mA/min
- cleavage rate mA/min (pH 8.75, MeSO2-D-CHG-Gly-Arg-pNA): 395.6 mA/min
- cleavage rate mA/min (pH 8.75, MeSO2-D-HHT-Gly-Arg-pNA): 170.7 mA/min
- cleavage rate mA/min (pH 9.0, MOC-D-Nle-Gly-Arg-pNA): 97.3 mA/min
- cleavage rate mA/min (pH 9.0, MeSO2-D-CHG-Gly-Arg-pNA): 373.3 mA/min
- cleavage rate mA/min (pH 9.0, MeSO2-D-HHT-Gly-Arg-pNA): 164.1 mA/min
- cleavage rate mA/min (pH 9.5, MOC-D-Nle-Gly-Arg-pNA): 70.7 mA/min
- cleavage rate mA/min (pH 9.5, MeSO2-D-CHG-Gly-Arg-pNA): 255.6 mA/min
- cleavage rate mA/min (pH 9.5, MeSO2-D-HHT-Gly-Arg-pNA): 112.0 mA/min
- cleavage rate mA/min (pH 10.0, MOC-D-Nle-Gly-Arg-pNA): 68.3 mA/min
- cleavage rate mA/min (pH 10.0, MeSO2-D-CHG-Gly-Arg-pNA): 244.5 mA/min
- cleavage rate mA/min (pH 10.0, MeSO2-D-HHT-Gly-Arg-pNA): 110.1 mA/min
